# Measured values published in patent US20040146959A1, “Fluorescent enzyme assay methods and compositions” (priority 2002, published 2004).
# Where no end group is shown, it is not given here. [ ]: non-standard residue; d: D form. The star is where a group is joined. C13 = acyl group coded C13, not further defined; C15 = acyl group coded C15, not further defined; C17 = acyl group coded C17, not further defined; Palmitoyl = CCCCCCCCCCCCCCCC(=O)*; pS = N[C@@H](COP(=O)(O)O)C(=O)O; K(dye2) = not defined here; OOO = not defined here
# What was measured:
# protein kinase A = molecular target: T1, protein kinase A (Bos taurus, UniProt P00517); test: Detection of protein kinase activity, fluorescence increase (Examples 4B, 5B, 6B); type: biochemical; conditions: for time to maximum fluorescence: after addition of ATP (compounds 7, 8) or enzyme (compound 9); for fold increase in fluorescence: maximum vs starting fluorescence; for maximum fluorescence after start of the kinase reaction / fluorescence before start of the kinase reaction: substrate 1 μM; for maximum fluorescence after start of the kinase reaction: ATP 0.5 mM, protein kinase A 35 or 7 units; for fluorescence before start of the kinase reaction: Tris pH 8.1 20 mM, MgCl2 1 mM, 100 μL
# T1 construct: purchased Promega (Madison, Wis.)
# Experimental: Fluorescence data were collected on a Perkin-Elmer LS-50B luminescence spectrometer. […] ATP was added to a final concentration of 0.5 mM and the fluorescence monitored, reaching a maximum of 180 fluorescence units after 6 minutes, or a 5-fold increase.
# Fluorescence data were collected on a Perkin-Elmer LS-50B luminescence spectrometer. […] ATP was added to a final concentration of 0.5 mM and the fluorescence monitored, reaching a maximum of 493 fluorescence units after 5 minutes, or a 3.5-fold increase.
# Fluorescence data were collected on a Perkin-Elmer LS-50B luminescence spectrometer. […] Protein kinase A (7 Units) was added and the fluorescence monitored, reaching a maximum of 420 fluorescence units after 3 minutes, or an 8-fold increase.
# PKC = test: Phosphorylation assay of linker substrates (Table 3), PKC; type: biochemical; conditions: substrate conc 4 or 6 uM (column Conc)
# Experimental: Protein kinase C reaction mixture aliquots (9 μL each) containing 2 μL 5× buffer (composed of 100 mM Tris, pH 8.1+25 mM MgCl2, and 0.5% v/v β-mercaptoethanol) 1 μL Upstate Lipid Activator, 0.05 μL Promega Protein Kinase C, 5.55 μL deionized water, and 0.4 μL substrate were added to wells of the 384 well plate. The reactions were initiated by the addition of 1 μL of Sigma-Aldrich ATP into each well.
# PKA = molecular target: T2, PKA (Bos taurus, UniProt P00517); test: Phosphorylation assay of linker substrates (Table 3), PKA; type: biochemical; conditions: substrate conc 8 uM
# T2 construct: purchased Promega (Madison, Wis.)
# Akt = Akt (Homo sapiens, UniProt P31749); test: Phosphorylation assay of linker substrates (Table 3), Akt; type: biochemical; conditions: substrate conc 8 uM
# Sequence of Akt (P31749 whole entry): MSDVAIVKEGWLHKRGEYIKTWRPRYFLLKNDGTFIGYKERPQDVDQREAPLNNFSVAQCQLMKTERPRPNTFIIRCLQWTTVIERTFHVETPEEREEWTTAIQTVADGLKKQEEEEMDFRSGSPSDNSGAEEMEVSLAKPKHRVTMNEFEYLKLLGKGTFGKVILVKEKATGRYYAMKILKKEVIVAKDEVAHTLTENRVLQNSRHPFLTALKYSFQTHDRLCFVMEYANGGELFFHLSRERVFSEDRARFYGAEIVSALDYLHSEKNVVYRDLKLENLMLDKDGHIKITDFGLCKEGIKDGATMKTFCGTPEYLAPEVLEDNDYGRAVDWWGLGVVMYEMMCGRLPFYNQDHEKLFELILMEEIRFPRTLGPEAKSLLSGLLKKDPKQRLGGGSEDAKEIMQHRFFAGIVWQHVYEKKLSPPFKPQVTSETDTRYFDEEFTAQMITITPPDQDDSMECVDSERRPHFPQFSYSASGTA
# Src, lyn, fyn = test: Phosphorylation assay of linker substrates (Table 3), Src, lyn, fyn; type: biochemical; conditions: substrate conc 8 uM
# MAPKAP2 = MAPKAP2 (Homo sapiens, UniProt P49137); test: Phosphorylation assay of linker substrates (Table 3), MAPKAP2; type: biochemical; conditions: substrate conc 8 uM
# Sequence of MAPKAP2 (P49137 whole entry): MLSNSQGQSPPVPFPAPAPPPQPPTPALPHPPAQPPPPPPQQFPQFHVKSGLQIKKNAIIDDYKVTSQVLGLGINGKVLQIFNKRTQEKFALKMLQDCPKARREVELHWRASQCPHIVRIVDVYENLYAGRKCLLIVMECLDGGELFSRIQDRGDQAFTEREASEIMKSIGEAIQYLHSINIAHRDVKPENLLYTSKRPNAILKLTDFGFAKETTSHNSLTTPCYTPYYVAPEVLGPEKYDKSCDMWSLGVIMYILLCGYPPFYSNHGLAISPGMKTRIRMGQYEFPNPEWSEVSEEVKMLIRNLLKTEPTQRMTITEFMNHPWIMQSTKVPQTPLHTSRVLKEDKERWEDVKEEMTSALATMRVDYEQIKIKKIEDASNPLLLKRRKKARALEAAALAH
# MAPK = test: Phosphorylation assay of linker substrates (Table 3), MAPK; type: biochemical; conditions: substrate conc 16 uM
# [1] = molecular target: T3, pp60^c-src-related protein tyrosine kinase (Homo sapiens, UniProt P12931); test: Detection of pp60c-src-related protein tyrosine kinase (Example 10B); type: biochemical; conditions: substrate 2.5 μM, 5 μL reaction volume, ATP 50 μM
# T3 construct: purchased Upstate, Inc. (Lake Placid, N.Y.) 14-326
# Experimental: Example 10 describes an assay for pp60^c-src-related protein tyrosine kinase. […] Enzyme reactions were performed in triplicate for a single substrate concentration, and two no-enzyme controls were also performed.
# Five wells of a Corning 384-well plate, black with a non-binding surface and low volume wells (cat. No. 3676) (Corning, Inc., Acton, Mass.) were used. Each well contained 5 μL of a solution containing compound 9 (2.5 μM), MgCl2 (1 mM), Tris buffer, pH 8.1 (20 mM) and src, active (1 unit, cat. No. 14-326). The kinase reaction was initiated in three of the wells by the addition of 1.25 μL of ATP (200 μM) to a final concentration of 50 μM.
# [2] = molecular target: E. coli alkaline phosphatase (Escherichia coli, UniProt P00634); test: Detection of phosphatase activity (Example 2B); type: biochemical; conditions: substrate 20 μM, Tris HCl pH 9, MgCl2 1 mM, 0.5 units enzyme
# Sequence of E. coli alkaline phosphatase (P00634 22-471): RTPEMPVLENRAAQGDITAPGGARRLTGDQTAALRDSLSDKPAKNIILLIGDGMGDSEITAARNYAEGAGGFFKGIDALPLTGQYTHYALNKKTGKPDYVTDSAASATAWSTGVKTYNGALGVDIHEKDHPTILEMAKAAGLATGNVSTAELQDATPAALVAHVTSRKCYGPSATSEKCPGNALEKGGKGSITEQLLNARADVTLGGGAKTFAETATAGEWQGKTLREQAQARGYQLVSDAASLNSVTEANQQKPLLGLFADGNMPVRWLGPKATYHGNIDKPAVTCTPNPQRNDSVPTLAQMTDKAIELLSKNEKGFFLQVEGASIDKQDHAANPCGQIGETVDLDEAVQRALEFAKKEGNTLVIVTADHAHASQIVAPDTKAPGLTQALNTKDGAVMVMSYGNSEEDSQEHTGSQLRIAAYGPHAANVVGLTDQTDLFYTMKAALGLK
# Experimental: Phosphatase reactions were performed in a 100 μL reaction mixture containing compound 2 (20 μM), Tris HCl buffer (50 mM) at pH 9, and MgCl2 (1 mM). Reactions were initiated by adding 0.5 units of E. coli alkaline phosphatase in 1 to 5 μL. The fluorescence was monitored on a Perkin-Elmer LS-50B luminescence spectrometer with excitation at 480 nm and emission at 525 and slit widths at 5 nm.
# [3] = tested on: T4, compound 1, palmitoyl-FAM-S(OPO3^2-)LRRRRFSK(Ac)G-amide
# T4 sequence: SLRRRRFSKG
# [4] = tested on: CCCCCCCCCCCCCCCC(=O)NCc1ccc(C(=O)NCc2c(O)ccc3c2Oc2cc(O)ccc2C32OC(=O)c3cc(C(=O)N[C@@H](COP(=O)(O)O)C(=O)N[C@@H](CC(C)C)C(=O)N[C@@H](CCCNC(=N)N)C(=O)N[C@@H](CCCNC(=N)N)C(=O)N[C@@H](CCCNC(=N)N)C(=O)N[C@@H](CCCNC(=N)N)C(=O)N[C@@H](Cc4ccccc4)C(=O)N[C@@H](CO)C(=O)N[C@@H](CCCCNC(C)=O)C(=O)NCC(N)=O)ccc32)cc1; test: Protein kinase A detection, double reciprocal plot of initial velocities (Example 1B); type: biochemical; conditions: other: substrate 0.15, 0.3, 0.6 μM, Tris pH 8.5, Mg-ATP 1 mM, cAMP 1 μM, catalytic subunit 2 units
# Experimental: (1 μM), and different concentrations of compound 1 (0.15 μM, 0.3 μM, and 0.6 μM), to which the catalytic subunit of protein kinase A (2 units) was then added. Fluorescence was monitored on a Perkin-Elmer LS-50B luminescence spectrometer with 500 nm excitation and emission at 530 nm, and slit width at 5 nm.
substance,measurement,setting,value
"(5-carboxy-2,7-dipyridyl-sulfofluorescein)-K-(N-perfluoro-octanoyl-proline)-LRRASLG-amide [Compound 8]",time to maximum fluorescence,protein kinase A,5 min
same,fold increase in fluorescence,protein kinase A,3.5 fold
same,maximum fluorescence after start of the kinase reaction,protein kinase A,493 fluorescence units
same,fluorescence before start of the kinase reaction,protein kinase A,140 fluorescence units
"(N-palmitoyl)-Lys(N-5-carboxy-2,′7′-dipyridyl-sulfofluorescein)-OOO-RREGSFR-amide (RREGSFR-NH2; not fully specified (N-terminus); printed as C16-OOOK(dye2)-RREGSFR-NH2) [Compound 10]",Fold increase,PKC,4.5×
same,RFUs at 10 uL (final),PKC,3000 RFUs
same,RFUs at 10 uL (initial),PKC,650 RFUs
"C13-K(dye2)-LRRASLG-NH2 ({C13-K(dye2)}-LRRASLG-NH2; reading uncertain; also: printed as C13-K(dye2)-LRRASLG-NH2) [PKA substrate; dye2 = 5-carboxy-2′,7′-dipyridyl-sulfonefluorescein]",Fold increase,PKA,5×
same,RFUs at 10 uL (final),PKA,5000 RFUs
same,RFUs at 10 uL (initial),PKA,1000 RFUs
C13-OOOK(dye2)-LRRASLG-NH2 (not fully specified (N-terminus); printed as C13-OOOK(dye2)-LRRASLG-NH2) [PKA substrate; O = 2-aminoethoxy-2-ethoxyacetyl linker],Fold increase,PKA,5×
same,RFUs at 10 uL (final),PKA,5000 RFUs
same,RFUs at 10 uL (initial),PKA,1000 RFUs
C15-OOOK(dye2)RPRTSSF-NH2 ({C15-OOO-K(dye2)}-RPRTSSF-NH2; reading uncertain; also: printed as C15-OOOK(dye2)RPRTSSF-NH2) [Akt substrate],Fold increase,Akt,4×
same,RFUs at 10 uL (final),Akt,7500 RFUs
same,RFUs at 10 uL (initial),Akt,1500 RFUs
"C16-OOOK(dye2)RIGEGTYGVVRR-NH2 ({Palmitoyl-OOO-K(dye2)}-RIGEGTYGVVRR-NH2; reading uncertain; also: printed as C16-OOOK(dye2)RIGEGTYGVVRR-NH2) [Src, lyn, fyn substrate]",Fold increase,"Src, lyn, fyn",6.5×
same,RFUs at 10 uL (final),"Src, lyn, fyn",6500 RFUs
same,RFUs at 10 uL (initial),"Src, lyn, fyn",1000 RFUs
C16-OOOK(dye2)RLNRTLSV-NH2 ({Palmitoyl-OOO-K(dye2)}-RLNRTLSV-NH2; reading uncertain; also: printed as C16-OOOK(dye2)RLNRTLSV-NH2) [MAPKAP2 substrate],Fold increase,MAPKAP2,4×
same,RFUs at 10 uL (final),MAPKAP2,3200 RFUs
same,RFUs at 10 uL (initial),MAPKAP2,800 RFUs
C17-OOOK(dye2)PRTPGGR-NH2 ({C17-OOO-K(dye2)}-PRTPGGR-NH2; reading uncertain; also: printed as C17-OOOK(dye2)PRTPGGR-NH2) [MAPK substrate],Fold increase,MAPK,5×
same,RFUs at 10 uL (final),MAPK,5700 RFUs
same,RFUs at 10 uL (initial),MAPK,1100 RFUs
"C17-OOOK(tet)-RQGSFRA-NH2 ({C17-OOO-K(TET)}-RQGSFRA-NH2; reading uncertain; also: printed as C17-OOOK(tet)-RQGSFRA-NH2) [PKC substrate; tet = 2′,7′,4,7-tetachloro-5-carboxy fluorescein]",Fold increase,PKC,7×
same,RFUs at 10 uL (final),PKC,4900 RFUs
same,RFUs at 10 uL (initial),PKC,700 RFUs
"N-(1H, 1H,2H,2H-Perfluorodecyl-1-thiol-2-acetyl)-K-(5-carboxysulfofluorescein) LRRASL-G-amide [Compound 7]",time to maximum fluorescence,protein kinase A,6 min
same,fold increase in fluorescence,protein kinase A,5 fold
same,maximum fluorescence after start of the kinase reaction,protein kinase A,180 fluorescence units
same,fluorescence before start of the kinase reaction,protein kinase A,35 fluorescence units
N-AcetylRGRPRTSSFAEG-OOOK(N-5-Carboxysulfo-fluroescein)K(N-Octadecanoyl)-amide [Compound 9],time to maximum fluorescence,protein kinase A,3 min
same,fold increase in fluorescence,protein kinase A,8 fold
same,maximum fluorescence after start of the kinase reaction,protein kinase A,420 fluorescence units
same,fluorescence before start of the kinase reaction,protein kinase A,50 fluorescence units
N-palmitoyl-Lys(ε-N-5-carboxy-sulfonefluorescein)KVEKIGEGTYGVVKK-amide ({Palmitoyl-K(5-carboxy-sulfonefluorescein)}-KVEKIGEGTYGVVKK-NH2) [Compound 13],fluorescent signal on reaction with kinase,[1],a strong fluorescent signal with high signal-to-noise was observed
palmitoyl-LRRRRFS(OPO3^2−)K(5-FAM)G-amide (Palmitoyl-LRRRRF[pS]-{K(5-FAM)-Gly-NH2}) [Compound 2],change in fluorescence over time on reaction with phosphatase,[2],immediate and significant increase in fluorescence over time
protein kinase A,"Km (double reciprocal plot of initial velocities, fluorescence kinase assay)",[3],a Km value of 0.3 µM
protein kinase A (Bos taurus),Km,[4],0.3 µM
